Assay results published in patent publication US20100216817A1, “Antitumoral Tetrahydro-Pyrimidines” (Pharma Mar SA, priority 2005, published 2010).
Where two headings read alike, the source gives them in different places.

How the values were obtained:
IGROV = test: SRB colorimetric cell growth inhibition assay; settings: for GI50 / CC50: Homo sapiens, 48 h; for CC50: read-out: LC50; for TGI: ovary, 48 hours exposure
IGROV-ET = test: SRB colorimetric cell growth inhibition assay; settings: for GI50 / CC50: Homo sapiens, 48 h; for CC50: read-out: LC50; for TGI: IGROV-ET, ovary, 48 hours exposure
PANC1 = test: SRB colorimetric cell growth inhibition assay; settings: for GI50 / CC50: Homo sapiens, PANC-1, 48 h; for CC50: read-out: LC50; for TGI: PANC1, pancreas, 48 hours exposure
A549 = test: SRB colorimetric cell growth inhibition assay; settings: for TGI: A549, NSCL, 48 hours exposure; for GI50 / CC50: Homo sapiens, A549, 48 h; for CC50: read-out: LC50
LOVO = test: SRB colorimetric cell growth inhibition assay; settings: for GI50 / CC50: Homo sapiens, LoVo, 48 h; for CC50: read-out: LC50; for TGI: LOVO, colon, 48 hours exposure
HT29 = test: SRB colorimetric cell growth inhibition assay; settings: for TGI: HT29, colon, 48 hours exposure; for GI50 / CC50: Homo sapiens, HT-29, 48 h; for CC50: read-out: LC50
SK-BR3 = test: SRB colorimetric cell growth inhibition assay; settings: for GI50 / CC50: Homo sapiens, SK-BR-3, 48 h; for CC50: read-out: LC50; for TGI: SK-BR3, breast, 48 hours exposure
SK-MEL-28 = test: SRB colorimetric cell growth inhibition assay; settings: for GI50 / CC50: Homo sapiens, SK-MEL-28, 48 h; for CC50: read-out: LC50; for TGI: SK-MEL-28, melanoma, 48 hours exposure
HELA-APL = test: SRB colorimetric cell growth inhibition assay; settings: for TGI: HELA-APL, cervix, Aplidine resistant, 48 hours exposure; for GI50 / CC50: Homo sapiens, 48 h; for CC50: read-out: LC50
LN-caP = test: SRB colorimetric cell growth inhibition assay
DU-145 = test: SRB colorimetric cell growth inhibition assay; settings: for TGI: DU-145, prostate, 48 hours exposure; for GI50 / CC50: Homo sapiens, DU-145, 48 h; for CC50: read-out: LC50
LOVO-DOX = test: SRB colorimetric cell growth inhibition assay; settings: for GI50 / CC50: Homo sapiens, 48 h; for CC50: read-out: LC50; for TGI: LOVO-DOX, colon (MDR), 48 hours exposure
HELA = test: SRB colorimetric cell growth inhibition assay; settings: for TGI: HELA, cervix, 48 hours exposure; for GI50 / CC50: Homo sapiens, HeLa, 48 h; for CC50: read-out: LC50
Clostridium perfringens = settings: Tetrahedron 1994, 50, 3415-3426; cited from earlier work
Bacteroides fragilis = settings: Tetrahedron 1994, 50, 3415-3426; cited from earlier work
Escherichia coli = settings: cited from earlier work
Pseudomonas aeruginosa = settings: cited from earlier work
Streptococcus fecalis = settings: J. Org. Chem. 1992, 57, 3832-3835; cited from earlier work
[1] = tested on: Peptococcus assaccharolyticus; settings: Tetrahedron 1994, 50, 3415-3426; cited from earlier work
Staphylococcus aureus = settings: cited from earlier work
[2] = J. Org. Chem. 1992, 57, 3832-3835
[3] = Tetrahedron 1994, 50, 3415-3426

CCCCCCC#C/C=C\CCCCCCCC1=NCCCN1CCCCNC(=N)N [Compound A]
GI50 (IGROV): 579 nM | CC50 (IGROV): 5310 nM | TGI (IGROV): 1.53E−6 Molar | GI50 (IGROV-ET): 463 nM | CC50 (IGROV-ET): 4420 nM | TGI (IGROV-ET): 1.26E−6 Molar | GI50 (PANC1): 535 nM | CC50 (PANC1): 2910 nM | TGI (PANC1): 1.16E−6 Molar | TGI (A549): 3.61E−6 Molar | GI50 (A549): 1220 nM | CC50 (A549): 12500 nM | GI50 (LOVO): 475 nM | CC50 (LOVO): 1410 nM | TGI (LOVO): 8.17E−7 Molar | TGI (HT29): 2.98E−6 Molar | GI50 (HT29): 1010 nM | CC50 (HT29): 8420 nM | GI50 (SK-BR3): 789 nM | CC50 (SK-BR3): 1810 nM | TGI (SK-BR3): 1.20E−6 Molar | GI50 (SK-MEL-28): 649 nM | CC50 (SK-MEL-28): 7660 nM | TGI (SK-MEL-28): 2.49E−6 Molar | TGI (HELA-APL): 1.07E−6 Molar | GI50 (HELA-APL): 540 nM | CC50 (HELA-APL): 2110 nM | GI50 (LN-caP; Homo sapiens, LNCaP, 48 h): 333 nM | CC50 (LN-caP; Homo sapiens, LNCaP, 48 h, read-out: LC50): 1370 nM | TGI (LN-caP; LN-caP, prostate, 48 hours exposure): 6.73E−7 Molar | TGI (DU-145): 8.80E−7 Molar | GI50 (DU-145): 424 nM | CC50 (DU-145): 1830 nM | GI50 (LOVO-DOX): 1780 nM | CC50 (LOVO-DOX): 13000 nM | TGI (LOVO-DOX): 5.14E−6 Molar | TGI (HELA): 2.42E−6 Molar | GI50 (HELA): 801 nM | CC50 (HELA): 1040 nM

N=C(N)NCCCCN1CCCN=C1CCCCCCCC=O [Compound B]
GI50 (IGROV): > 9290 nM | CC50 (IGROV): > 9290 nM | TGI (IGROV): >9.29E−6 Molar | GI50 (IGROV-ET): > 9290 nM | CC50 (IGROV-ET): > 9290 nM | TGI (IGROV-ET): >9.29E−6 Molar | GI50 (PANC1): > 9290 nM | CC50 (PANC1): > 9290 nM | TGI (PANC1): >9.29E−6 Molar | TGI (A549): >9.29E−6 Molar | GI50 (A549): > 9290 nM | CC50 (A549): > 9290 nM | GI50 (LOVO): > 9290 nM | CC50 (LOVO): > 9290 nM | TGI (LOVO): >9.29E−6 Molar | TGI (HT29): >9.29E−6 Molar | GI50 (HT29): > 9290 nM | CC50 (HT29): > 9290 nM | GI50 (SK-BR3): > 9290 nM | CC50 (SK-BR3): > 9290 nM | TGI (SK-BR3): >9.29E−6 Molar | GI50 (SK-MEL-28): > 9290 nM | CC50 (SK-MEL-28): > 9290 nM | TGI (SK-MEL-28): >9.29E−6 Molar | TGI (HELA-APL): >9.29E−6 Molar | GI50 (HELA-APL): > 9290 nM | CC50 (HELA-APL): > 9290 nM | TGI (DU-145): >9.29E−6 Molar | GI50 (DU-145): > 9290 nM | CC50 (DU-145): > 9290 nM | GI50 (LOVO-DOX): > 9290 nM | CC50 (LOVO-DOX): > 9290 nM | TGI (LOVO-DOX): >9.29E−6 Molar | TGI (HELA): >9.29E−6 Molar | GI50 (HELA): > 9290 nM | CC50 (HELA): > 9290 nM

Phloeodictine A
MIC (Clostridium perfringens): 30 µg/mL | MIC (Bacteroides fragilis): 1 µg/mL | MIC (Escherichia coli; [2]): 1 µg/mL | MIC (Escherichia coli; [3]): 3 µg/mL | MIC (Pseudomonas aeruginosa; [2]): 10 µg/mL | MIC (Pseudomonas aeruginosa; [3]): 30 µg/mL | MIC (Streptococcus fecalis): 5 µg/mL | MIC [1]: 10 µg/mL | MIC (Staphylococcus aureus; [2]): 1 µg/mL | MIC (Staphylococcus aureus; [3]): 3 µg/mL

Phloeodictine B
MIC (Clostridium perfringens): > 30 µg/mL | MIC (Bacteroides fragilis): > 30 µg/mL | MIC (Escherichia coli; [2]): 30 µg/mL | MIC (Escherichia coli; [3]): 30 µg/mL | MIC (Pseudomonas aeruginosa; [2]): > 30 µg/mL | MIC (Streptococcus fecalis): > 15 µg/mL | MIC [1]: > 30 µg/mL | MIC (Staphylococcus aureus; [2]): 3 µg/mL | MIC (Staphylococcus aureus; [3]): 30 µg/mL
